Experimental data: patent US20070253913A1, “Aerosol formulations for delivery of dihydroergotamine to the systemic circulation via pulmonary inhalation” (priority 2003, published 2007)
Values joined by “and” are separate entries in the source; they are usually repeats but may differ in a detail not shown here. Equal values may be shown once. Where a name gives a salt, the structure may show the parent alone. Read-outs that look alike come from different tables or passages of the source.

How the values were obtained:
[1] = Pharmacokinetics of DHE in dog serum after DPI inhalation vs intravenous bolus; format: in vivo, dogs; conditions: for Tmax: dog serum, inhalation 1 mg DPI
Procedure: In this study, dogs were administered the DHE particles via the DPI format (total dose 1 mg) and by intravenous bolus (total dose 0.5 mg) and DHE levels were measured in dog serum at defined intervals.

[2] = cited from earlier work
[3] = Powder stability with accelerated environmental aging, particle size by Aerosizer; format: physicochemical; conditions: MMAD
Procedure: (§1) DHE particle were produced by the SEDS super critical fluid process as described by Palakadoty et al. (US Application 20030109421). The DHE particulate powder produced was assayed by HPLC to determine purity and the mass mean aerodynamic diameter was determined using an Aerosizer instrument under standard operating conditions known in the art. […] The DHE particulate powder was subject to standard accelerated aging conditions of: (i) 3 months at 40 degrees Celsius and 75% relative humidity; and (ii) 25 degrees Celsius and 60% relative humidity. The DHE particles were placed in a tightly sealed dark glass container and placed in the appropriate incubation ovens for the 3 month period. At the end of the three month period, purity and particle size were again assessed as discussed above.

[4] = Powder stability with accelerated environmental aging, HPLC assay; format: physicochemical
Procedure: as §1

Compound	Tmax ([1]; individual dogs) [min]	blood levels of DHE compared to intravenous delivery ([1]; dog, DPI 1 mg vs iv bolus 0.5 mg, FIG. 1)	time to measurable levels of DHE in the blood after inhalation ([1]; dog, DPI 1 mg, FIG. 1) [s]	bioavailability ([1]; dog, in vivo, dog, inhalation 1.0 mg vs iv bolus 0.5 mg, n=3, read-out: F (bioavailability) Average (%)) [%]	Tmax ([1]; dog, in vivo, inhaled or intranasal, 1 mg, individual dogs, read-out: Tmax (converted)) [min]	Tmax ([1]; dog, in vivo, inhaled or intranasal, 1 mg, n=3, read-out: Tmax Average (converted)) [min]	F (bioavailability) (%) ([1]; dog, inhalation 1.0 mg vs iv bolus 0.5 mg, individual dogs)	bioavailability, administered dose reaching the systemic circulation ([2]; in vivo)	Particle Size (microns by Aerosizer) ([3]; 3 Months @ 25 C./60% RH) [microns]	Particle Size (microns by Aerosizer) ([3]; 3 Months @ 40 C./75% RH) [microns]	Particle Size (microns by Aerosizer) ([3]; Initial, on production) [microns]	HPLC Assay (%) ([4]; 3 Months @ 25 C./60% RH, sealed dark glass container)	HPLC Assay (%) ([4]; 3 Months @ 40 C./75% RH, sealed dark glass container)	HPLC Assay (%) ([4]; Initial, on production)	bioavailability ([2]; pulmonary delivery)
CN1C[C@H](C(=O)N[C@]2(C)O[C@@]3(O)[C@@H]4CCCN4C(=O)[C@H](Cc4ccccc4)N3C2=O)C[C@@H]2c3cccc4[nH]cc(c34)C[C@H]21 [DHE, dihydroergotamine]	10	maintained at higher levels over an extended period of time	≤ 30	52	5	6.7	27% and 49% and 80%	2-10%	1.044	1.091	1.131	101.0	102.0	98.3	–
CN1C[C@H](C(=O)N[C@]2(C)O[C@@]3(O)[C@@H]4CCCN4C(=O)[C@H](Cc4ccccc4)N3C2=O)C=C2c3cccc4[nH]cc(c34)C[C@H]21 [ergotamine tartrate]	–	–	–	–	–	–	–	–	–	–	–	–	–	–	up to 92%
